Laboratory results published in US5114464A, “4-quinoxalinyloxyphenoxyalkylinitrile herbicides” (Uniroyal Chemical Company, Inc., priority 1990, dated 1992).

Key:
soybean = test: Postemergence selectivity, greenhouse: soybean injury (Table III); format: in vivo; conditions: 250 ppm, treated May 26, rated Jun. 12
Description: (§1) To illustrate the effectiveness of the Compounds 1 and 2 of this invention as preemergence herbicides, 300 mg of each compound were dissolved in 10 ml acetone to which 30 mg of an emulsifying agent, ethoxylated sorbitan monolaurate, were added. The solution was diluted to 100 ml with distilled water. Ten milliliters of the 3000 ppm solution were diluted to 250 ppm with distilled water. The chemical was applied at the rate of 10 lb/A (11.2 kg/ha) by drenching 46 ml of the 250 ppm solution on the surface of soil in 41/2inch (11.25 cm) plastic pots wherein seeds of the following weeds had been planted: velvet leaf (Abutilon theoohrasti Medic.) (VL), prickly sida (sida soinosa L.) (PS), tall morningglory (Ioomea purourea L. Roth) (TM), switchgrass (Panicum viroatum L.) (SG), barnyard grass (Echinolchloa crus-oalli (L.) Beauv.) (BG), and green foxtail (Setaria viridis) (L.) Beauv.) (GF). The percent control of the weeds compared to untreated checks was determined two weeks after treatment.
(§2) To illustrate the effectiveness of Compound 1 of this invention as a corn-safe selective postemergence herbicide, the 3000 ppm solution prepared as described in Example 3 was diluted with distilled water to 250 ppm and applied to foliage as described in Example 3. The commercial product Hoelon 3EC® (Hoechst) was included as a standard. […] The percent weed control and crop injury was determined on Jun. […]

Barnyard grass [1] = test: Postemergence selectivity, field test: Barnyard grass control (Table IV); format: in vivo; conditions: 33 days after treatment
Description: (§3) To further illustrate the effectiveness of Compound 1 of this invention as a corn-safe selective postemergence herbicide, field tests were run in which five corn hybrids (designated C9979, C6114, C8004 and C1914 by the Independent Professional Seedsmans Association, and Pioneer 3295) along with two grass weeds (Giant foxtail, "GF"; and Barnyard grass, "BG") were planted in an Illinois field on April 24. The crops were treated with various amounts of Compound 1 in early Jun., and the amount of crop control was evaluated 33 days after treatment compared to an untreated control. The active ingredient was formulated as follows: […]
(§4) That produces a formulation containing 10% active ingredient by weight. The required amount of formulation to produce the indicated rate per acre is added to water, mixed with one quart of an adjuvant containing 83% mineral oil and 17% emulsifiers, then brought up to a total spray volume of 20 gallons per acre with water.

weeds [2] = test: Postemergence control, summary statement; format: in vivo; conditions: 3000 ppm
Description: as §1
(§5) To test the effectiveness of Compounds 1 and 2 of this invention as postemergence herbicides, a 3000 ppm solution of each compound (produced in accordance with the process described under Example 3) was atomized employing a DEVILBISS [trademark] sprayer, wetting the foliage to the drip point. […] The percent weed control was evaluated two weeks after treatment.

corn = test: Postemergence selectivity, greenhouse: corn injury (Table III); format: in vivo; conditions: 250 ppm
Description: as §1, §2

tall morningglory [3] = test: Preemergence control of tall morningglory (Table I); format: in vivo, Ioomea purourea L. Roth; conditions: 11.2 kg/ha, two weeks after treatment
Description: as §1

cotton = test: Postemergence selectivity, greenhouse: cotton injury (Table III); format: in vivo; conditions: 250 ppm, treated May 26, rated Jun. 12
Description: as §1, §2

switchgrass [4] = test: Preemergence control of switchgrass (Table I); format: in vivo, Panicum viroatum L.; conditions: 11.2 kg/ha, two weeks after treatment
Description: as §1

grass weeds [5] = test: Postemergence selectivity field test (Example 6), summary for grass weeds; format: in vivo; conditions: 0.125 to 0.50 lb/a
Description: as §3, §4

prickly sida [6] = test: Preemergence control of prickly sida (Table I); format: in vivo, sida soinosa L.; conditions: 11.2 kg/ha, two weeks after treatment
Description: as §1

prickly sida [7] = test: Postemergence control of prickly sida (Table II); format: in vivo, sida soinosa L.; conditions: 3000 ppm, two weeks after treatment
Description: as §1, §5

green foxtail [8] = test: Postemergence control of green foxtail (Table II); format: in vivo, Setaria viridis (L.) Beauv.; conditions: 3000 ppm, two weeks after treatment
Description: as §1, §5

weeds [9] = test: Preemergence control, summary statement; format: in vivo; conditions: 11.2 kg/ha
Description: as §1

barnyard grass [10] = test: Preemergence control of barnyard grass (Table I); format: in vivo, Echinolchloa crus-oalli (L.) Beauv.; conditions: 11.2 kg/ha, two weeks after treatment
Description: as §1

barnyard grass [11] = test: Postemergence control of barnyard grass (Table II); format: in vivo, Echinolchloa crus-oalli (L.) Beauv.; conditions: 3000 ppm, two weeks after treatment
Description: as §1, §5

tall morningglory [12] = test: Postemergence control of tall morningglory (Table II); format: in vivo, Ioomea purourea L. Roth; conditions: 3000 ppm, two weeks after treatment
Description: as §1, §5

grass weeds [13] = test: Postemergence selectivity greenhouse (Example 5), summary for grass weeds; format: in vivo; conditions: 250 ppm
Description: as §1, §2

switchgrass [14] = test: Postemergence selectivity, greenhouse: switchgrass control (Table III); format: in vivo, Panicum viroatum L.; conditions: 250 ppm, treated May 26, rated Jun. 12
Description: as §1, §2

switchgrass [15] = test: Postemergence control of switchgrass (Table II); format: in vivo, Panicum viroatum L.; conditions: 3000 ppm, two weeks after treatment
Description: as §1, §5

green foxtail [16] = test: Postemergence selectivity, greenhouse: green foxtail control (Table III); format: in vivo, Setaria viridis (L.) Beauv.; conditions: 250 ppm, treated May 26, rated Jun. 12
Description: as §1, §2

velvet leaf [17] = test: Preemergence control of velvet leaf (Table I); format: in vivo, Abutilon theoohrasti Medic.; conditions: 11.2 kg/ha, two weeks after treatment
Description: as §1

Giant foxtail = test: Postemergence selectivity, field test: Giant foxtail control (Table IV); format: in vivo; conditions: 33 days after treatment
Description: as §3, §4

velvet leaf [18] = test: Postemergence control of velvet leaf (Table II); format: in vivo, Abutilon theoohrasti Medic.; conditions: 3000 ppm, two weeks after treatment
Description: as §1, §5

green foxtail [19] = test: Preemergence control of green foxtail (Table I); format: in vivo, Setaria viridis (L.) Beauv.; conditions: 11.2 kg/ha, two weeks after treatment
Description: as §1

barnyard grass [20] = test: Postemergence selectivity, greenhouse: barnyard grass control (Table III); format: in vivo, Echinolchloa crus-oalli (L.) Beauv.; conditions: 250 ppm, treated May 26, rated Jun. 12
Description: as §1, §2

corn hybrids = test: Postemergence selectivity, field test: corn hybrids (Table IV); format: in vivo; conditions: for Percent corn crop control (injury): 33 days
Description: as §3, §4

N#CCOc1ccc(Oc2cnc3cc(Cl)ccc3n2)cc1 [Compound 1, 2-[4-(6-chloro-2-quinoxalinyloxy)phenoxy]acetonitrile]
Percent crop injury SOYBEAN (soybean): 0%
Percent Weed Control BG (Barnyard grass [1]; 0.125 lb/a): 30.0%
Percent Weed Control BG (Barnyard grass [1]; 0.25 lb/a): 43.3%
Percent Weed Control BG (Barnyard grass [1]; 0.50 lb/a): 90.0%
postemergent herbicidal control (weeds [2]): desirable postemergent herbicidal control
corn safety (corn): substantially innocuous to corn
Percent crop injury CORN (corn; treated May 26, rated Jun. 12): 0%
% Control TM (tall morningglory [3]): 0%
Percent crop injury COTTON (cotton): 0%
% Control SG (switchgrass [4]): 50%
control of several grass weeds (grass weeds [5]): good control of several grass weeds
% Control PS (prickly sida [6]): 0%
% Control PS (prickly sida [7]): 0%
% Control GF (green foxtail [8]): 9%
herbicidal efficacy (weeds [9]): good to excellent herbicidal efficacy
% Control BG (barnyard grass [10]): 100%
% Control BG (barnyard grass [11]): 100%
% Control TM (tall morningglory [12]): 0%
control of several grass weeds (grass weeds [13]): good control of several grass weeds
Percent weed control SG (switchgrass [14]): 100%
% Control SG (switchgrass [15]): 100%
Percent Weed Control GF (green foxtail [16]): 90%
% Control VL (velvet leaf [17]): 0%
Percent Weed Control GF (Giant foxtail; 0.125 lb/a): 99.3%
Percent Weed Control GF (Giant foxtail; 0.25 lb/a): 100%
Percent Weed Control GF (Giant foxtail; 0.50 lb/a): 100%
% Control VL (velvet leaf [18]): 0%
% Control GF (green foxtail [19]): 90%
Percent Weed Control BG (barnyard grass [20]): 100%
corn safety (corn hybrids; 0.125 to 0.50 lb/a): substantially innocuous to corn
Percent corn crop control (injury) (corn hybrids; corn hybrid C1914, 0.125 lb/a): 0%
Percent corn crop control (injury) (corn hybrids; corn hybrid C1914, 0.25 lb/a): 0%
Percent corn crop control (injury) (corn hybrids; corn hybrid C1914, 0.50 lb/a): 0%
Percent corn crop control (injury) (corn hybrids; corn hybrid C6114, 0.125 lb/a): 0%
Percent corn crop control (injury) (corn hybrids; corn hybrid C6114, 0.25 lb/a): 0%
Percent corn crop control (injury) (corn hybrids; corn hybrid C6114, 0.50 lb/a): 0%
Percent corn crop control (injury) (corn hybrids; corn hybrid C8004, 0.125 lb/a): 0%
Percent corn crop control (injury) (corn hybrids; corn hybrid C8004, 0.25 lb/a): 0%
Percent corn crop control (injury) (corn hybrids; corn hybrid C8004, 0.50 lb/a): 0%
Percent corn crop control (injury) (corn hybrids; corn hybrid C9979, 0.125 lb/a): 0%
Percent corn crop control (injury) (corn hybrids; corn hybrid C9979, 0.25 lb/a): 0%
Percent corn crop control (injury) (corn hybrids; corn hybrid C9979, 0.50 lb/a): 0%
Percent corn crop control (injury) (corn hybrids; corn hybrid Pioneer 3295, 0.125 lb/a): 0%
Percent corn crop control (injury) (corn hybrids; corn hybrid Pioneer 3295, 0.25 lb/a): 0%
Percent corn crop control (injury) (corn hybrids; corn hybrid Pioneer 3295, 0.50 lb/a): 0%
